The text below walks through data of publication PMC5537305, “Photo-enhanced Aqueous Solubilization of an Azo-compound” (Scientific Reports, 2017).

Converted amounts (≈) assume the structure as drawn. Read-outs that look alike come from different tables or passages of the source.

The nature of series [1]: Photoinduced cis-trans isomerization of 3 in water containing 1% MeOH (HPLC peak areas). The class given is physicochemical. On the procedure: To confirm the potential usefulness of this strategy for improving aqueous solubility, we focused on kinase inhibitor 3 [31] (Fig. S2) as representative of pharmaceutical compounds, because the 518 human protein kinases include important drug targets, and the molecular structures of many kinase inhibitors tend to be rather similar. […]
Table S2. Photoinduced isomerization of 3
Light Time (min) cis ratio (%) trans ratio (%)
Compound 3 (10 µM) in a mixture of water and MeOH (1%) was successively exposed to white light and to a 365 nm mercury lamp (0.5 mW/cm2). The cis-trans ratio was calculated from the peak areas in HPLC. […]
Physicochemical properties
The UV-visible absorption spectra of the cis and trans isomers were determined on a UV-visible spectrometer (Shimano, UV-2400PC). Sample solutions in quartz cells were irradiated with a 365 nm mercury lamp (4 W, UVP compact UV lamp, 0.5 mW/cm2), LED UV light (3.3 W, CCS HLV-24UV365-4WNRBTNJ, 344 mW/cm2), or white LED light (5 W, Nikki Trading Corp., NLSS05BM, 68 and 54 mW/cm2 at 450 and 540 nm, respectively) for the indicated times at room temperature. […]

Series [2] is described as follows: Aqueous dissolution in the dark of UV-irradiated crystals of 3. The class given is physicochemical. Particulars: for cis ratio contained in the solution, on average: dissolved in the dark; for cis ratio / solubility at 1 h: 37 °C, 1 h; for solubility at 1 h: phosphate buffer, thermodynamic from solid, read-out: Aqueous solubilized 3. From the text: At the photostationary state under UV irradiation, the equilibria shown in Fig. 3a should be in balance. Here, we are interested in the transient process, i.e., how cis-3 in solution increases when UV irradiation is started. There are two possible routes for generating cis-3 in solution from trans-3 in the solid state: route (i) and (ii). Route (i) is clearly possible, because the process trans solution → cis solution is easily driven by UV irradiation (Fig. S3a). The remaining question is whether cis isomerization of solid 3 is induced under UV irradiation, that is, whether route (ii) also operates. To answer this question, we investigated the aqueous dissolution in the dark of UV-irradiated crystals of 3. The UV-irradiated crystals were clearly more soluble than the unirradiated crystals (Fig. 3b and Table S7). In addition, the cis ratio of UV-irradiated crystals contained in the solution was higher than that of unirradiated crystals (14% vs 4% on average, Table S7). […] Therefore, we conclude that routes (i) and (ii) both operate upon UV irradiation.
Figure 3 (a) Possible equilibria and routes for generating cis-3 in solution. (b) Kinetics of aqueous dissolution of UV-irradiated crystals of 3, measured in the dark. Crystals of 3 were irradiated with 365 nm LED light (344 mW/cm^2) at 37 °C for 3 h. The UV-irradiated crystals and unirradiated crystals were each shaken with phosphate buffer in the dark at 37 °C for 1 h. Data are the mean ± SD of three individual experiments. The asterisk indicates a significant difference (*p < 0.05) from the unirradiated crystals according to the unpaired, two-sided Student’s t-test. […]
Table S7. Aqueous dissolution of UV-irradiated crystals of 3 measured in the dark, and the cis ratio contained […]
Unirradiated crystals UV-irradiated crystals entry Aqueous solubilized 3 cis ratio (%) Aqueous solubilized 3 cis ratio (%) […]
Crystals of 3 were irradiated with 365 nm LED light (344 mW/cm2) at 37 °C for 3 h. It should be noted that […]
The UV-irradiated crystals and unirradiated crystals were each shaken in phosphate buffer in the dark at 37 °C for 1 h.

[3] abbreviates: 10 µM in water/MeOH (1%), step 1: visible (white light) 10 min.
[4] abbreviates: step 2: UV 365 nm mercury lamp 0.5 mW/cm2, 10 min.
Where [5] appears, read: step 4: UV 10 min (second UV exposure).

In the case of `CC(C)n1nc(/N=N/c2ccccc2)c2c(N)ncnc21` [Compound 3], the cis ratio stood at 20.3% in series [1] (setting [3]); 84.8% in series [1] (setting [4]); 18.3% in series [1] (step 3: visible 12 min); 86.9% in series [1] (setting [5]); 19.4% in series [1] (step 5: visible 20 min); 21% in series [2] (UV-irradiated crystals, entry 1, dark). Further, the cis ratio was found to be 14% in series [2] (UV-irradiated crystals, entry 2, dark); 7% in series [2] (UV-irradiated crystals, entry 3, dark); 5% in series [2] (Unirradiated crystals, entry 1, dark); 3% in series [2] (Unirradiated crystals, entry 2, dark); 4% in series [2] (Unirradiated crystals, entry 3, dark). The trans ratio in series [1] (setting [3]) turned out to be 79.7%; in series [1] (setting [4]) it was 15.2%; in series [1] (step 3: visible 12 min) it was 81.7%; in series [1] (setting [5]), 13.1%; in series [1] (step 5: visible 20 min), 80.6%. Moreover, the entries for the “cis ratio contained in the solution, on average” value in series [2] (UV-irradiated crystals) and in series [2] (unirradiated crystals) were 14% and 4%, respectively. In addition, the solubility at 1 h came to 2.6 µg/mL (≈ 9.24 µM) in series [2] (aqueous buffer, Unirradiated crystals, entry 2, dark); 3.7 µg/mL (≈ 13.2 µM) in series [2] (pH 7.4, aqueous buffer, UV-irradiated crystals (365 nm LED 344 mW/cm2, 37 °C, 3 h), entry 1, dark); 3.4 µg/mL (≈ 12.1 µM) in series [2] (pH 7.4, aqueous buffer, UV-irradiated crystals, entry 2, dark); 3.2 µg/mL (≈ 11.4 µM) in series [2] (pH 7.4, aqueous buffer, UV-irradiated crystals, entry 3, dark); 2.8 µg/mL (≈ 9.95 µM) in series [2] (pH 7.4, aqueous buffer, Unirradiated crystals, entry 1, phosphate buffer, dark); 3 µg/mL (≈ 10.7 µM) in series [2] (pH 7.4, aqueous buffer, Unirradiated crystals, entry 3, dark).
